Earlier results on 1 compound are cited in patent US20250108011A1, “ORAL DOSAGE FORMS OF A […] ACTIVE ACID-LABILE SALT AND METHODS AND USES RELATED THERETO” (Rijksuniversiteit Groningen, priority 2022, published 2025).

SMILES strings stand for the structures.

The subject of one series is hypercalciuric rats. Conditions: oral, ref [22].
The next series relates to calciphylaxis. Conditions: oral maintenance therapy, ref [21].
For series [1], the system named is pregnant Dahl salt-sensitive rats. The note with it: ref [23].

`O=S([O-])([O-])=S.[Na+].[Na+]` [STS, Sodium thiosulfate]: the effect on nephrolithiasis entry with hypercalciuric rats is “reduce calcium phosphate nephrolithiasis”. The “tolerability of oral administration” value in the series with calciphylaxis is reported as “well tolerated with no reported side effects”. Moreover, the “effect on blood pressure” value in series [1] is listed as “antihypertensive effects”. For the same compound, the “renal effect of oral STS as a single treatment regimen” value with hypertensive rats (oral, ref [19]) is “renoprotective effects”. Moreover, the “effect as a single treatment regimen in hypertensive rats” value with hypertensive rats (refs [17,18]) is “reduced blood pressure, proteinuria, kidney and heart damage”. Moreover, the “cardiac effect of oral STS” value in the series on hypertensive rats (same model, ref [20]) is “Cardioprotective effects”.
